# According to patent US11857544B2, “Composition or method including (t)ew-7197 for treating or preventing corneal endothelial diseases” (THE DOSHISHA, priority 2017, dated 2024):
# Tests used:
# Assay type in all cases: cell-based, human
# fibronectin = assay: Western blot for fibronectin in TGF-β-stimulated iFECD; conditions: any of the concentrations 0.1, 1, 10 μM
# Protocol: (§1) […] were seeded on a 12-well plate at a ratio of 8×10^4 cells per well, and cultured at 37° C. (5% CO2) for 24 hours. DMEM+10% FBS+1% P/S was used as the medium. After 24 hours, the medium was removed. EW-7197 (Selleck Chemicals, 57530) was added so that the final concentration would be 0.1, 1, or 10 μM, and SB431542 (WAKO, 192-16541) was added so that the final concentration would be 10 μM, and the medium was cultured for 24 hours. DMEM+2% FBS+1% P/S was used as the medium. After 24 hours, the medium was removed and cultured […] so that the final concentration of 10 ng/ml of Transforming Growth Factor-132 Human recombinant (WAKO, 200-19911) and […] would be 0.1, 1, and 10 μM, and that of SB431542 would be 10 μM. DMEM+2% FBS+1% P/S was used as the medium. After 24 hours, the cell morphology and apoptosis were observed under a phase contrast microscope. To retrieve floating and dead cells, the medium was retrieved on ice, cells were washed twice with 1×PBS(-) and the solution thereof was also retrieved. The solution was centrifuged for 5 min at 4° C. and 800 g and the supernatant was discarded to obtain a precipitate. […] The detected band intensities were analyzed with Lumino Image Analyzer LAS-4000 mini (Fuji Film) and ImageQuantTM software (GE Healthcare).
# [1] = test system: activated form of cleaved caspase 3; assay: Western blot for cleaved caspase 3 in TGF-β-stimulated iFECD; conditions: 0.1, 1, 10 μM
# Protocol: as §1
# PARP = assay: Western blot for PARP in TGF-β-stimulated iFECD; conditions: 0.1, 1, 10 μM
# Protocol: as §1
smiles,measurement,setting,value
"Cc1cccc(-c2[nH]c(CNc3ccccc3F)nc2-c2ccc3ncnn3c2)n1 [EW-7197, N-((4-([1,2,4]triazolo[1,5-a]pyridin-6-yl)-5-(6-methylpyridin-2-yl)-1H-imidazol-2-yl)methyl)-2-fluoroaniline]",expression of fibronectin (about 240 kDa),fibronectin,suppressed to the same degree as the control group without stimulation with TGF-β or 10 μM of SB431542
same,activated form of cleaved caspase 3 (about 17 kDa),[1],suppressed to the same degree as the control group without stimulation with TGF-β or 10 μM of SB431542
same,PARP (about 89 kDa),PARP,suppressed to the same degree as the control group without stimulation with TGF-β or 10 μM of SB431542
